From patent US7868037B2 (PTC Therapeutics, Inc., priority 2004, dated 2011)
pIC50: −log10 of the molar value. Where two headings read alike, the source gives them in different places.

Columns and labels:
[1] = system: HCV replicon; assay: microbe, parasite or virus in culture; format: cell-based, hepatitis C virus; conditions: Hepatitis C virus; for IC50: read-out: Replicon IC50 μM; for pIC50: read-out: Replicon IC50

SMILES | IC50 [1] [µM] | melting point [°C] | pIC50 [1]
CCn1c(-c2ccc(NS(C)(=O)=O)cc2)c(C#N)c2ccc(O)cc21 [Compound 189, N-[4-(3-cyano-1-ethyl-6-hydroxy-1H-indol-2-yl)-phenyl]-methanesulfonamide] | > 2 | 252 to 253 | 
CCn1cc(C#N)c2ccc(OC)cc21 [Compound 5, 1-ethyl-6-methoxy-1H-indole-3-carbonitrile] | > 2 | 64 to 66 | 
CCc1nc(-c2cn(CC)c3cc(OC)ccc23)no1 [Compound 28, 1-ethyl-3-(5-ethyl-[1,2,4]oxadiazol-3-yl)-6-methoxy-1H-indole] | 0.5 to 2 | 68 to 70 | 
CCn1c(-c2ccc(OCCOC)cc2)c(C#N)c2ccc(OC)cc21 [Compound 248, 1-ethyl-6-methoxy-2-[4-(2-methoxyethoxy)-phenyl]-1H-indole-3-carbonitrile] | 0.5 to 2 | 117 to 121 | 
CCn1c(-c2ccc(O)c(NC(=O)CCl)c2)c(C#N)c2ccc(OC)cc21 [Compound 333, 2-chloro-N-[5-(3-cyano-1-ethyl-6-methoxy-1H-indol-2-yl)-2-hydroxyphenyl]acetamide] | 0.5 to 2 | 237 to 240 | 
CCOc1ccc2c(C(=O)N(C)C)c(-c3ccc(N4C(=O)CN(C)C4=O)cc3)n(CC)c2c1 [Compound 781, N,N-Dimethyl-6-ethoxy-1-ethyl-2-[4-(3-methyl-2,5-dioxo-imidazolidin-1-yl)-phenyl]-1H-indole-3-carboxamide] | < 0.5 | 207 to 208 | 
CCn1c(-c2ccc(N(CCOC(C)=O)S(C)(=O)=O)cc2)c(C#N)c2ccc(OC)cc21 [Compound 815, N-(2-acetoxyethyl)-N-[4-(3-cyano-1-ethyl-6-methoxy-1H-indol-2-yl)-phenyl]methanesulfonamide] | > 2 | 153 to 154 | 
CCn1c(-c2ccc(OCCN3CCOCC3)cc2)c(C#N)c2ccc(OC)cc21 [Compound 261, 1-ethyl-6-methoxy-2-[4-(2-morpholin-4-yl-ethoxy)-phenyl]-1H-indole-3-carbonitrile] | 0.5 to 2 | 138 to 143 | 
CCOc1ccc2c(C#N)c(-c3ccc(N4C(=O)CNC4=O)cc3)n(CC)c2c1 [Compound 779, 2-[4-(2,5-dioxo-imidazolidin-1-yl)-phenyl]-6-ethoxy-1-ethyl-1H-indole-3-carbonitrile] | < 0.5 | 265 to 267 | 
CCn1c(-c2ccc3c(c2)NC(=O)CO3)c(C#N)c2ccc(OC)cc21 [Compound 334, 1-ethyl-6-methoxy-2-(3-oxo-3,4-dihydro-2H-benzo[1,4]oxazin-6-yl)-1H-indole-3-carbonitrile] | 0.5 to 2 | 242 to 246 | 
CCn1cc(-c2ccn[nH]2)c2ccc(OC)cc21 [Compound 59, 1-ethyl-6-methoxy-3-(2H-pyrazol-3-yl)-1H-indole] | > 2 | 81 to 85 | 
CCn1c(-c2ccc(N)cc2)c(C#N)c2ccc(OC)cc21 [Compound 55, 2-(4-aminophenyl)-1-ethyl-6-methoxy-1H-indole-3-carbonitrile] | > 2 | 183 to 185 | 
CCn1c(-c2ccc(OCCN=[N+]=[N-])cc2)c(C#N)c2ccc(OC)cc21 [Compound 266, 2-[4-(2-azidoethoxy)phenyl]-1-ethyl-6-methoxy-1H-indole-3-carbonitrile] | 0.5 to 2 | 96 to 99 | 
CCn1c(-c2ccc(OCCN)cc2)c(C#N)c2ccc(OC)cc21 [Compound 267, 2-[4-(2-aminoethoxy)phenyl]-1-ethyl-6-methoxy-1H-indole-3-carbonitrile] | > 2 | 106 to 112 | 
CCn1c(-c2ccc(OCCNC=O)cc2)c(C#N)c2ccc(OC)cc21 [Compound 280, N-{2-[4-(3-cyano-1-ethyl-6-methoxy-1H-indol-2-yl)-phenoxy]ethyl}formamide] | > 2 | 89 to 95 | 
CCn1c(-c2ccc(Nc3nc(-c4ccccc4)nc4ccccc34)cc2)c(C#N)c2ccc(OC)cc21 [Compound 458, 1-ethyl-6-methoxy-2-[4-(2-phenylquinazolin-4-ylamino)-phenyl]-1H-indole-3-carbonitrile] |  | 272 to 273 | < 5.70
CCn1cc(-c2cnco2)c2ccc(C(=O)OC)cc21 [Compound 72, methyl 1-ethyl-3-oxazol-5-yl-1H-indole-6-carboxylate] | > 2 | 144 to 149 | 
CCOc1ccc2c(C(=O)N(C)C)c(-c3ccc(N4C(=O)C(C)N(C)C4=O)cc3)n(CC)c2c1 (centres unmarked) [Compound 780, N,N-Dimethyl-2-[4-(3,4-dimethyl-2,5-dioxo-imidazolidin-1-yl)-phenyl]-6-ethoxy-1-ethyl-1H-indole-3-carboxamide] | 0.5 to 2 | 219 to 220 | 
CCn1c(C#Cc2ccc(NC(C)=O)cc2)c(C#N)c2ccc(OC)cc21 [Compound 138, N-[4-(3-cyano-1-ethyl-6-methoxy-1H-indol-2-ylethynyl)-phenyl]-acetamide] | 0.5 to 2 | 235 to 239 | 
CCn1cc(-c2ncco2)c2ccc(C(=O)OC)cc21 [Compound 75, methyl 1-ethyl-3-oxazol-2-yl-1H-indole-6-carboxylate] | > 2 | 118 to 123 | 
CCCn1c(-c2ccc(N3CCCS3(=O)=O)cc2)c(-c2cnco2)c2ccc(OC)cc21 [Compound 805] | > 2 | 217 to 222 | 
CCn1c(-c2ccc(C(=O)N3CCOCC3)cc2)c(C#N)c2cc(OC)ccc21 [Compound 245, 1-ethyl-5-methoxy-2-[4-(morpholine-4-carbonyl)-phenyl]-1H-indole-3-carbonitrile] | > 2 | 192 to 195 | 
CCOc1ccc(-c2c(C#N)c3ccc(NC(=O)OC(C)(C)C)cc3n2CC)cc1 [Compound 832, [3-cyano-2-(4-ethoxy-phenyl)-1-ethyl-1H-indol-6-yl]-carbamic acid tert-butyl ester] | 0.5 to 2 | 206 to 207 | 
CCn1cc(C#N)c2ccc(C(=O)Nc3ccccc3)cc21 [Compound 15, 3-cyano-1-ethyl-1H-indole-6-carboxylic acid phenylamide] | > 2 | 225 to 226 | 
CCCOC(=O)Nc1ccc2c(C#N)cn(-c3ccc(OC)cc3)c2c1 [Compound 97, [3-Cyano-1-(4-methoxyphenyl)-1H-indol-6-yl]-carbamic acid propyl ester] | > 2 | 164 to 167 | 
CCn1cc(-c2nccs2)c2ccc(OC)cc21 [Compound 73, 1-ethyl-6-methoxy-3-thiazol-2-yl-1H-indole] | > 2 |  | 
CCn1c(-c2ccc(NS(=O)(=O)CCN3CCOCC3)cc2)c(C#N)c2ccc(OC)cc21 [Compound 653, 2-morpholin-4-yl-ethanesulfonic acid [4-(3-cyano-1-ethyl-6-methoxy-1H-indol-2-yl)-phenyl]amide] | > 2 |  | 
CCOC(=O)Nc1cccc(-c2c(C#N)c3ccc(OCCCN4CCCC4)cc3n2CC)c1 [Compound 530, {3-[3-cyano-1-ethyl-6-(3-pyrrolidin-1-yl-propoxy)-1H-indol-2-yl]-phenyl}-carbamic acid ethyl ester] |  |  | > 6.30
